Reference: patent publication US20230089267A1, “Compositions and Methods For Reducing Immune Intolerance and Treating Autoimmune Disorders” (Lapix Therapeutics, Inc., priority 2021, published 2023)

Legend:
[1] = test system: Foxp3+/CD4+ T-cells of MS patients; test: PBMCs of multiple sclerosis patients treated ex vivo; assay type: cell-based, human; conditions: up to 2.5 μM, five days, six subjects
Description: Total human PBMCs were isolated from six subjects with confirmed diagnosis of MS. On Day 0, 2×10^5 cells/well were incubated in a 96 round bottomed-well plate alone or with up to 2.5 μM Compound 2 for five days. On Day 5, cells were collected, washed and stained for surface staining (CD3, CD4), then viability dye to exclude dead cells. Intranuclear staining was performed after cell fixation and permeabilization for transcription factor FoxP3. Cells were washed and fixed for acquisition by Attune NXT flow cytometer. Data were analyzed by FlowJov10.

[2] = test system: MOG35-55-induced murine EAE model; test: MOG35-55-induced murine EAE model, Compound 2 versus Compound 8 (Example 12); assay type: in vivo, mice; conditions: 3 μg/mouse/day SC, after ten days of treatment
Description: Mice were immunized with 100 μg MOG35-55 emulsified with CFA and pertussis toxin, as described in Example 4. At disease onset (clinical score 1), mice were randomized into two treatment groups, and received 3 μg/mouse/day SC of either Compound 2 or Compound 8.

[3] = test system: MOG35-55-induced murine EAE model; test: Escalation treatment paradigm in MOG35-55-induced murine EAE model (Example 8); assay type: in vivo, mice
Description: Compound 2 (0.03 mg/ml) was formulated with hydroxypropyl beta cyclodextrin (HPCD) 1:80 (Compound 2:HPCD) and stored at 4° C. until use. Natalizumab, an anti-α4β1 integrin antibody is a monoclonal antibody that is approved by U.S. Food and Drug Administration (FDA) for the treatment of relapsing forms of MS. […] Natalizumab was diluted in PBS to a final concentration of 15 mg/ml before dosing. DMF is a disease-modifying therapy (DMT) recommended for the treatment of active relapsing multiple sclerosis. DMF (1 g) was dissolved in 50 ml of 4% solution of METHOCEL© to give a 20 mg/ml solution of DMF. The solution was stored at 4° C. until use.
Experimental autoimmune (allergic) encephalomyelitis (EAE) is considered to be the best non-clinical model of multiple sclerosis (MS). Over 6,000 papers have been published in scientific journals on this model. EAE is characterized by immune responses against CNS tissue and can be induced in animals by immunizing them against proteins of the CNS. In the active EAE model, mice are immunized with MOG35-55 peptide emulsified in Complete Freund's Adjuvant (CFA) by subcutaneous injection at the tail base (100 μg of […] per mouse) under anesthesia. On the day of injection (Day 0) and two days later (Day 2), mice receive an intraperitoneal injection of pertussis toxin (PT) in PBS at 200 ng/mouse/dose (0.1 mL). Symptoms typically develop in mice 9-14 days after immunization (Day 0). Daily observation and scoring of mice start on Day 7 and continue until the end of the study. Table 5 (see Example 4 above) details the expected clinical symptoms and the scoring criteria used in this study.
This study was designed to evaluate the early sustained use of Compound 2 versus DMF in a treatment escalation paradigm (sustained use cohort), and Compound 2 versus natalizumab after DMF failure (escalation cohort). All animals in the escalation cohorts received 14 doses of DMF or Compound 2, or 3 doses of natalizumab, as per group assignment.
Probability of disease control: Disease control was defined as a clinical score of less than 2.5. Animals in the different treatment groups were monitored after the 3:1:1 randomization. A score of 2.5 was recorded as an event and analyzed by survival analysis in GraphPad Prism 9. Animals not reaching a clinical score of 2.5 by day 14, the end of the treatment period, were assigned a score of zero for the survival analysis.
Efficacy of Compound 2 versus DMF in early sustained use: Animals in the DMF group that reached a score of 2.5 were randomized 1:1:1, as per FIG. 5A. Animals randomized to continue DMF treatment were given the remainder of the 14 DMF doses. Animals from the first randomization that were treated with Compound 2 after disease onset continued treatment for a total of 14 doses. After the 14th dose, treatment was stopped and clinical score and overall survival were monitored.
Efficacy of Compound 2 versus natalizumab in a treatment escalation cohort: Animals in the DMF group that reached a score of 2.5 were randomized 1:1:1, as per FIG. 5A. Animals randomized to natalizumab were dosed 100 μg/mouse IV every 3 days for 3 total doses starting the same day a score of 2.5 was recorded. Animals randomized to Compound 2 were dosed with 3 μg/mouse SC QD for 14 total doses starting on the same day a score of 2.5 was recorded.
Overall survival: Death due to the disease was monitored in the early sustained use cohort as well as the escalation cohort. Death by disease (clinical score of 5) was recorded as an event “1,” death due to ulceration or for ex vivo analysis was recorded as “0.” Animals surviving until the end of the study were recorded “0” on day 27. Survival analysis was done in GraphPad Prism 9.

[4] = test system: CD4+/Foxp3+ T-cells; test: Foxp3 induction in human total PBMCs or sorted T-cells; assay type: cell-based; conditions: 3 ng/ml; for percentage of CD4+/Foxp3+ T-cells: five days
Description: 2×10^5 Total PBMCs or sorted T-cells (CD3^+) were cultured in 96-well plates in the presence of ascending doses of Compound 2 ranging from 0 to 3 ng/ml for five days. On day 5, cells were washed and stained for CD3 and CD4 for 30 minutes on ice, then cells were washed with PBS and stained with viability dye to exclude dead cells. Stained cells were fixed/permeabilized and further stained for Foxp3. Finally, cells were washed and fixed for acquisition by Attune NXT flow cytometer. Data were analyzed by FlowJov10.

[5] = escalation cohort after DMF failure (score 2.5), by day 14 after switching

For N[C@@H](CNC(=O)Cc1ccc(OCc2cccc3ccccc23)cc1)C(=O)O [Compound 2, (S)-2-Amino-3-(2-(4-(naphthalen-1-ylmethoxy)phenyl)acetamido)propanoic acid], the “MS patients whose T-cells responded (increase in percentage of Foxp3+/CD4+ T-cells)” value [1] was “five out of six”, the “mean clinical score, comparison of the two groups” value [2] was “no statistical difference” and the “disease course in early sustained use cohort” value ([3]; 14 doses, followed to end of study) was “better overall disease control during therapy (day 1 to 14) and after stopping therapy (day 14 to end of study)”. For the same molecule, the “mean clinical score after switching from DMF” value [3, 5] was 2.6 (SD=1.1), the “median clinical score after switching from DMF” value [3, 5] was 2.5 and the “animals that survived until day 27, escalation cohort” value ([3]; switched from DMF) was 8 out of 9. The “overall survival, early sustained use cohort” value ([3]; to day 27) was “all animals treated with Compound 2 survived until day 27”, the “animals that progressed to a disease score of 2.5” value ([3]; treatment from disease onset (score 1), over the entire treatment period (14 days)) was 5 of the 9 and the “percentage of CD4+/Foxp3+ T-cells” value ([4]; isolated T-cells (sorted)) was 2.27%. For the same molecule, the “percentage of CD4+/Foxp3+ T-cells” value ([4]; total PBMC) was 5.2%, the “increase of percentage of CD4+/Foxp3+ T-cells” value ([4]; isolated T-cells (sorted)) was 606% and the “increase of percentage of CD4+/Foxp3+ T-cells” value ([4]; total PBMC) was 171%.
